Data from patent US10987450B2, “Lyophilized moldable implants containing an oxysterol” (Warsaw Orthopedic, Inc., priority 2016, dated 2021).
“Also recorded” adds a separate entry of the source.

Key:
[1] = system: C3H10T1/2 embryonic fibroblasts; details: cited from earlier work
[2] = system: M2-10B4 (M2) marrow stromal cells; details: cited from earlier work
[3] = system: rat spines; test: rat two-level spine model, implants in the posterolateral space, radiographs and manual palpation; assay type: in vivo; details: 4-week and 8-week time points
Protocol: FIG. 6 illustrates uses of a formulation of malleable implants having 20 mg of Oxy133 on each side of the implant, in accordance with the malleable implants described herein. […] A dry composition of a matrix containing Oxy133, collagen and ceramic as described herein was prepared and wetted with sterile water to be implanted in rat spines as shown in FIG. 6. The wetted matrix was cut in half with a razor blade to yield two halves. The two implants were molded into cylindrical shapes prior to insertion and were positioned bilaterally in the posterolateral space of each test subject. Each implant contained 20 mg Oxy133. Radiographs were taken roughly 10 minutes after the procedure, 4 weeks after the procedure, and 8 weeks after the procedure. […] Fusion was tested at 8-week sacrifice by manual palpation. […] A dry composition of a matrix containing Oxy133, collagen and ceramic as described herein was prepared and wetted with sterile water to be implanted in rat spines as shown in FIG. 6. The wetted matrix was cut in half with a razor blade to yield two halves. The two implants were molded into cylindrical shapes prior to insertion and were positioned bilaterally in the posterolateral space of each test subject. Each implant contained 125 mg Oxy133. Radiographs were taken roughly 10 minutes after the procedure, 4 weeks after the procedure, and 8 weeks after the procedure. […]

[4] = solubility of Oxy133 in water; assay type: physicochemical
Excerpt: The Oxy133 can be solubilized in a non-aqueous solvent, such as for example, ethanol and mixed into a solution or suspension. In some embodiments, the Oxy133 can be filtered by passing the Oxy133 and solvent through a filter (e.g., 0.22 microns). This will remove bacteria and other larger-size particulates out of the composition. The Oxy133 used in the composition can be micronized before it is mixed with solvents and other excipients. In various embodiments, the particle size of the Oxy133 can range from about 1 micron to 250 microns. In some embodiments, the Oxy133 can have a particle size of from about 5 microns to about 100 microns or from about 20 to 50 microns. The Oxy133 in the solution or suspension can be added to a slurry of biodegradable polymer and/or the ceramic particles, mixed and, then dried.

[5] = system: Mesenchymal stem cells; test: osteoblast differentiation of mesenchymal stem cells treated with Oxy133; assay type: cell-based
Excerpt: Thus, in some embodiments, a matrix comprising Oxy133 may be implanted into a spinal site with mesenchymal stem cells to induce bone growth through osteoblast differentiation. Periosteum tissue is one tissue type that is involved early during normal bone fracture repair process and can recruit various cell types (e.g., mesenchymal stem cells) and bone growth factors necessary for bone fracture repair. Thus, in some embodiments, periosteum tissue is utilized as a source of mesenchymal stem cells and/or growth factors in a demineralized bone composition.

For `CC(C)CCC[C@](C)(O)[C@H]1CC[C@H]2[C@@H]3CC=C4C[C@@H](O)CC[C@]4(C)[C@H]3CC[C@@]21C` [20(S)-hydroxycholesterol], the osteogenic differentiation [1] is given as “induce osteogenic differentiation” and the osteogenic differentiation [2] is given as “induce osteogenic differentiation”.

For `CC(C)CC[C@@H](O)[C@@H](C)[C@H]1CC[C@H]2[C@@H]3CC=C4C[C@@H](O)CC[C@]4(C)[C@H]3CC[C@]12C` [22(R)-hydroxycholesterol], the osteogenic differentiation [1] is listed as “induce osteogenic differentiation” and the osteogenic differentiation [2] is listed as “induce osteogenic differentiation”.

In the case of `CC(C)CC[C@H](O)[C@@H](C)[C@H]1CC[C@H]2[C@@H]3CC=C4C[C@@H](O)CC[C@]4(C)[C@H]3CC[C@]12C` [22(S)-, 22(S)-hydroxycholesterol], the osteogenic differentiation [1] is listed as “induce osteogenic differentiation” and the osteogenic differentiation [2] is listed as “induce osteogenic differentiation”.

In the case of `CCCCCC[C@](C)(O)[C@H]1CC[C@H]2[C@@H]3C[C@H](O)[C@H]4C[C@@H](O)CC[C@]4(C)[C@H]3CC[C@@]21C` [Oxy133, (3S,5S,6S,8R,9S,10R, 13S, 14S,17S) 17-((S)-2-hydroxyoctan-2-yl)-10,13-dimethylhexadecahydro-1H-cyclopenta[a]phenanthrene-3,6-diol], the “bridging bone across the transverse processes of L3-L5 (radiographs)” value ([3]; each implant 20 mg Oxy133) was “Bone growth in rat test subjects can be seen; also recorded: promoted bridging bone”, the “bridging bone across the transverse processes of L3-L5 (radiographs)” value ([3]; each implant 125 mg Oxy133) was “promoted bridging bone; also recorded: Bone growth in rat test subjects can be seen” and the solubility in water [4] was “only slightly soluble or insoluble”. The osteoblast differentiation [5] was “increased osteoblast differentiation”.
